Assay: relative stability and turnover of the crystalline forms
Format: physicochemical
Conditions: for thermodynamic stability of the crystalline form: solid form, Form II statement applies to the 5-70° C. range
Text: Alternatively, Form I can also be produced by solvent/anti solvent crystallizations where the solvent is (but limited not) DMSO or acetone and the antisolvent is (but not limited to) water, hexanes or heptanes. Form I can also be produced by slow evaporation of clear solutions of crude Example 1 in volatile solvents where the volatile solvent is (but not limited to) dichloromethane, acetone, or acetonitrile. Form I was characterized using PXRD, DSC, TGA and SCXRD.
Form II can be produced by recrystallization of Form I in a variety of organic solvents or mixtures thereof where the solvent(s) is (are) (but not limited to) ethyl acetate, isopropanol, acetone, dichloromethane, acetonitrile, tetrahydrofuran, water, ethanol, 2-methyl tetrahydrofuran, toluene, methanol, dimethyl formamide or cyclopentyl methyl ether. Form II was characterized using PXRD, DSC and TGA.
Type C can be produced by recrystallization of either Form I, Form II or Form III in solvent/antisolvent systems where the solvent is (but not limited to) acetone or dichloromethane and the antisolvent is (but not limited to) n-hexane or n-heptane.
Form III was produced by recrystallization of Type C in the solid state at 150° C. and under a N2 flow. Form III can also be formed in some instances from solution in acetone/n-heptane crystallizations. […] Form III was characterized using PXRD, DSC, TGA and SCXRD.

| Compound | thermodynamic stability of the crystalline form | lifetime in solution before turnover into a more thermodynamically stable phase (in solution) |
| --- | --- | --- |
| COC(=O)NC[C@H]1CN(c2cc(F)c(N3CCS(=O)(=O)CC3)c(F)c2)C(=O)O1 [Form III, methyl ({(5S)-3-[4-(1,1-dioxo-1λ^6-thiomorpholin-4-yl)-3,5-difluorophenyl]-2-oxo-1,3-oxazolidin-5-yl}methyl)carbamate] | Quick turnovers to more thermodynamically stable phases Form I or Form II are readily observed within minutes to hours |  |
| COC(=O)NC[C@H]1CN(c2cc(F)c(N3CCS(=O)(=O)CC3)c(F)c2)C(=O)O1 [Form II, methyl ({(5S)-3-[4-(1,1-dioxo-1λ^6-thiomorpholin-4-yl)-3,5-difluorophenyl]-2-oxo-1,3-oxazolidin-5-yl}methyl)carbamate] | most thermodynamically stable form in the 5-70 °C range |  |
| COC(=O)NC[C@H]1CN(c2cc(F)c(N3CCS(=O)(=O)CC3)c(F)c2)C(=O)O1 [Type C, methyl ({(5S)-3-[4-(1,1-dioxo-1λ^6-thiomorpholin-4-yl)-3,5-difluorophenyl]-2-oxo-1,3-oxazolidin-5-yl}methyl)carbamate] | highly metastable | a few hours |
| COC(=O)NC[C@H]1CN(c2cc(F)c(N3CCS(=O)(=O)CC3)c(F)c2)C(=O)O1 [Form I, methyl({(5S)-3-[4-(1,1-dioxo-1λ^6-thiomorpholin-4-yl)-3,5-difluorophenyl]-2-oxo-1,3-oxazolidin-5-yl}methyl)carbamate] | kinetic phase and will recrystallize into Form II with time |  |
